Read-outs that look alike come from different tables or passages of the source.
What was measured:
Assay type in all cases: cell-based, human
[1] = system: Target C mRNA; test: Splicing RT-qPCR gene panel, Target C canonical junction (CJ) mRNA; conditions: Homo sapiens, Tables 4A/4B, read-out: Target C (IC50, decrease in CJ mRNA, gene panel)
Method: (§1) Compounds described herein were used to modulate RNA transcript abundance in cells. The expression of a target mRNA was measured by detecting the formation of an exon-exon junction in the canonical transcript (CJ). A compound mediated exon-inclusion event was detected by observing an increase in formation of a new junction with an alternative exon (AJ). Real-time qPCR assays were used to detect these splicing switches and interrogate the potency of various compounds towards different target genes. A high-throughput real time quantitative PCR (RT-qPCR) assay was developed to measure these two isoforms of the mRNA (CJ and AJ) for exemplary genes, such as HTT, SMN2, and MYB, together with a control housekeeping gene, GAPDH or GUSB or PPIA, used for normalization. Briefly, the A673 or K562 cell line was treated with various compounds described herein (e.g., compounds of Formula (I)). After treatment, the levels of the HTT, MYB, or SMN2 mRNA targets were determined from each sample of cell lysate by cDNA synthesis followed by qPCR.
(§2) The A673 cell line was cultured in DMEM with 10% FBS. Cells were diluted with full growth media and plated in a 96-well plate (15,000 cells in 100 ul media per well). The plate was incubated at 37° C. with 5% CO2 for 24 hours to allow cells to adhere. An 11-point 3-fold serial dilution of the compounds was made in DMSO then diluted in media in an intermediate plate. Compounds were transferred from the intermediate plate to the cell plate with the top dose at a final concentration of 10 uM in the well. Final DMSO concentration was kept at or below 0.25%. The cell plate was returned to the incubator at 37° C. with 5% CO2 for an additional 24 hours.
(§3) The K562 cell line was cultured in IMDM with 10% FBS. For K562, cells were diluted with full growth media and plated in either a 96-well plate (50,000 cells in 50 uL media per well) or a 384-well plate (8,000-40,000 cells in 45 uL media per well). An 11-point 3-fold serial dilution of the compounds were made in DMSO then diluted in media in an intermediate plate. Compound was transferred from the intermediate plate to the cell plate with the top dose at a final concentration of 10 uM in the well. Final DMSO concentration was kept at or below 0.25%. Final volume was 100 uL for 96-well plate and 50 uL for 384-well plate. The cell plate was then placed in an incubator at 37° C. with 5% CO2 for 24 hours.
(§4) The cells were then gently washed with 50 uL-100 uL cold PBS before proceeding to addition of lysis buffer. 30 uL-50 uL of room temperature lysis buffer with DNAse I (and optionally RNAsin) was added to each well. Cells were shaken/mixed thoroughly at room temperature for 5-10 minutes for lysis to take place and then 3 uL-5 uL of room temperature stop solution was added and wells were shaken/mixed again. After 2-5 minutes, the cell lysate plate was transferred to ice for RT-qPCR reaction setup. The lysates could also be frozen at −80° C. for later use.
(§5) In some cases, a direct lysis buffer was used. An appropriate volume of 3× lysis buffer (10 mM Tris, 150 mM NaCl, 1.5%-2.5% Igepal and 0.1-1 U/uL RNAsin, pH 7.4) was directly added to either K562 or A673 cells in media and mixed by pipetting 3 times. The plates were then incubated at room temperature with shaking/rocking for 20-50 minutes to allow for lysis to take place. After this time, the cell lysate plate was transferred to ice to set up for the RT-qPCR reactions. The lysates could also be frozen at −80° C. for later use.
(§6) To set up 10 uL RT-qPCR reactions, cell lysates were transferred to 384-well qPCR plates containing the master mix according to the table below. The plates were sealed, gently vortexed, and spun down before the run. The volumes were adjusted accordingly in some instances where the reaction was carried in 20 μL. The table below summarizes the components of the RT-qPCR reactions:
(§7) The RT-qPCR reaction was performed using a QuantStudio (ThermoFisher) under the following fast cycling conditions. […]

[2] = system: HTT mRNA; test: Splicing RT-qPCR gene panel, HTT canonical junction (CJ) mRNA; conditions: Homo sapiens, Tables 4A/4B, read-out: HTT (IC50, decrease in CJ mRNA, gene panel)
Method: as §1, §2, §3, §4, §5, §6, §7

[3] = system: SMN2 mRNA; test: Splicing RT-qPCR gene panel, SMN2 canonical junction (CJ) mRNA; conditions: Homo sapiens, Tables 4A/4B, read-out: SMN2 (IC50, decrease in CJ mRNA, gene panel)
Method: as §1, §2, §3, §4, §5, §6, §7

[4] = system: HTT mRNA; test: Splicing RT-qPCR assay, HTT canonical (CJ) and alternative (AJ) junction mRNA; conditions: Homo sapiens, A673 or K562 cells, 24 hours compound treatment; for IC50: 24 h, read-out: HTT CJ (IC50, decrease in canonical junction mRNA); for AC50: read-out: HTT AJ (AC50, increase in alternative junction mRNA)
Method in brief: (§8)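 One-step RT-qPCR on cell lysates, CJ and AJ isoforms quantified; housekeeping normalization GAPDH/GUSB (K562) or PPIA (A673). Cells: A673 in DMEM/10% FBS or K562 in IMDM/10% FBS. Compounds 11-pt 3-fold, top 10 uM, 24 h, 37 °C, 5% CO2.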

[5] = system: MYB mRNA; test: Splicing RT-qPCR assay, MYB canonical (CJ) and alternative (AJ) junction mRNA; conditions: Homo sapiens; for AC50: read-out: MYB AJ (AC50, increase in alternative junction mRNA)
Method in brief: as §8

[6] = 24 h, A673 or K562 cells, 24 hours compound treatment, RT-qPCR
[7] = 24 h, A673 or K562 cells, 24 hours compound treatment, RT-qPCR, read-out: MYB CJ (IC50, decrease in canonical junction mRNA)
[8] = Tables 4A/4B, canonical junction qPCR panel, read-out: MYB (IC50, decrease in CJ mRNA, gene panel)

| IC50 [1] [µM] | IC50 [2] [µM] | IC50 [3] [µM] | IC50 [4] [µM] | IC50 [5, 7] [µM] | IC50 [5, 8] [µM] | Structure (SMILES) | AC50 [4] [µM] | AC50 [5, 6] [µM] |
| --- | --- | --- | --- | --- | --- | --- | --- | --- |
| 1 to 10 | 0.1 to 1 | < 0.1 | 0.1 to 1 | < 0.1 | < 0.1 | Cc1cn2cc(NC(=O)c3c(F)cc(N4CCC(N(C)C)C4)c4cn(C)nc34)cc(F)c2n1 (stereo in doubt) [Compound 464, 4-[(3S)-3-(dimethylamino)pyrrolidin-1-yl]-6-fluoro-N-{8-fluoro-2-methylimidazo[1,2-a]pyridin-6-yl}-2-methylindazole-7-carboxamide] | 0.1 to 1 | < 0.1 |
| 1 to 10 | 0.1 to 1 | < 0.1 | 0.1 to 1 | < 0.1 | < 0.1 | Cc1cn2cc(NC(=O)c3ccc(N4CCN(C)C(C)C4)c4cn(C)nc34)cc(F)c2n1 (stereo not shown) [Compound 229] | 0.1 to 1 | < 0.1 |
| > 10 | > 10 | > 10 | > 10 | > 10 | > 10 | Cn1cc2ccc(NC(=O)c3ccc(N4CCNCC4)c4cn(C)nc34)cc2n1 [Compound 230] | > 10 | > 10 |
| > 10 | > 10 | > 10 | > 10 | > 10 | > 10 | Cn1cc2c(F)cc(NC(=O)c3ccc(N4CCNCC4)c4cn(C)nc34)cc2n1 [Compound 231] | > 10 | > 10 |
| > 10 | 1 to 10 | < 0.1 | 1 to 10 | 0.1 to 1 | 0.1 to 1 | Cc1nc2c(F)cc(NC(=O)c3ccc(N4CCNCC4)c4cn(C)nc34)cc2s1 [Compound 235] | 1 to 10 | 0.1 to 1 |
| > 10 | 1 to 10 | < 0.1 | 1 to 10 | 0.1 to 1 | 0.1 to 1 | CC1=CC2=NC(C)=NC2C=C1NC(=O)c1ccc(N2CCNCC2)c2cn(C)nc12 (stereo not shown) [Compound 237] | 1 to 10 | < 0.1 |
| > 10 | 1 to 10 | < 0.1 | 1 to 10 | 0.1 to 1 | 0.1 to 1 | Cc1cn2cc(NC(=O)c3ccc(N4CCNCC4)c4cn(C)nc34)cc(C)c2n1 [Compound 238] | 1 to 10 | 0.1 to 1 |
| 1 to 10 | 0.1 to 1 | < 0.1 | 0.1 to 1 | < 0.1 | < 0.1 | CCC1CN(c2ccc(C(=O)Nc3cc(F)c4nc(C)cn4c3)c3nn(C)cc23)CCN1 (stereo not shown) [Compound 239] | 0.1 to 1 | 0.1 to 1 |
| 1 to 10 | 0.1 to 1 | < 0.1 | 0.1 to 1 | < 0.1 | < 0.1 | CC1=NC2C=C(NC(=O)c3ccc(N4CCNC(C)(C)C4)c4cn(C)nc34)C=C(F)C2=N1 (stereo not shown) [Compound 240] | 0.1 to 1 | < 0.1 |
| 1 to 10 | 0.1 to 1 | < 0.1 | 0.1 to 1 | < 0.1 | < 0.1 | Cc1cn2cc(NC(=O)c3ccc(N4CC5(CNC5)C4)c4cn(C)nc34)cc(F)c2n1 [Compound 242] | 1 to 10 | 0.1 to 1 |

Further lines, the compound ahead of its results:

| Structure (SMILES) | IC50 [1] [µM] | IC50 [2] [µM] | IC50 [3] [µM] | IC50 [4] [µM] | IC50 [5, 7] [µM] | IC50 [5, 8] [µM] | AC50 [4] [µM] | AC50 [5, 6] [µM] |
| --- | --- | --- | --- | --- | --- | --- | --- | --- |
| Cc1cn2cc(NC(=O)c3ccc(C4CCNCC4)c4c3OCC4)cc(F)c2n1 [Compound 188] | 1 to 10 | > 10 | 0.1 to 1 | > 10 | 1 to 10 | 1 to 10 | > 10 | 1 to 10 |
| Cc1cn2cc(NC(=O)c3ccc(N(C)C4CC(C)(C)NC(C)(C)C4)c4cc(C)oc34)cc(F)c2n1 [Compound 201] | > 10 | > 10 | 1 to 10 | > 10 | > 10 | > 10 | > 10 | > 10 |
| Cc1cn2cc(NC(=O)c3ccc(N4CCC(N(C)C)C4)c4cc(C)oc34)cc(F)c2n1 (stereo not shown) [Compound 202] | > 10 | > 10 | < 0.1 | > 10 | 0.1 to 1 | 0.1 to 1 | 1 to 10 | < 0.1 |
| Cc1cn2cc(NC(=O)c3ccc(N4CCC(N5CCCC5)C4)c4cc(C)oc34)cc(F)c2n1 (stereo not shown) [Compound 204] | 1 to 10 | 1 to 10 | < 0.1 | 1 to 10 | 0.1 to 1 | 0.1 to 1 | 1 to 10 | 0.1 to 1 |
| Cc1cn2cc(NC(=O)c3ccc(N4CC5(CNC5)C4)c4cc(C)oc34)cc(F)c2n1 [Compound 205] | 1 to 10 | 0.1 to 1 | < 0.1 | 0.1 to 1 | 0.1 to 1 | 0.1 to 1 | 1 to 10 | 0.1 to 1 |
| Cc1cn2cc(NC(=O)c3ccc(N4CC5(CN(C)C5)C4)c4cc(C)oc34)cc(F)c2n1 [Compound 206] | > 10 | 1 to 10 | < 0.1 | 1 to 10 | 0.1 to 1 | 0.1 to 1 | 1 to 10 | 0.1 to 1 |
| Cc1cn2cc(NC(=O)c3ccc(C4CCN(C)CC4)c4cn(C)nc34)cc(F)c2n1 [Compound 209] | 0.1 to 1 | 0.1 to 1 | 1 to 10 | 0.1 to 1 | < 0.1 | < 0.1 | 0.1 to 1 | < 0.1 |
| CCN1CCC(c2ccc(C(=O)Nc3cc(F)c4nc(C)cn4c3)c3nn(C)cc23)CC1 [Compound 210] | 1 to 10 | 0.1 to 1 | < 0.1 | 0.1 to 1 | < 0.1 | < 0.1 | 0.1 to 1 | < 0.1 |
| Cc1cn2cc(NC(=O)c3ccc(C4CC(C)(C)NC(C)(C)C4)c4cn(C)nc34)cc(F)c2n1 [Compound 212] | > 10 | 1 to 10 | 0.1 to 1 | 1 to 10 | 0.1 to 1 | 0.1 to 1 | > 10 | 1 to 10 |
| Cc1cc2c(N3CCNCC3)ccc(C(=O)Nc3cc(F)c4nc(C)sc4c3)c2o1 [Compound 219] | > 10 | > 10 | 0.1 to 1 | > 10 | 0.1 to 1 | 0.1 to 1 | > 10 | 1 to 10 |

From patent US20250154169A1, “COMPOUNDS AND METHODS FOR MODULATING SPLICING” (REMIX THERAPEUTICS INC., priority 2021, published 2025)
